According to US7053189B2 (Oregon Health & Sciences University, priority 1990, dated 2006):
Like-named read-outs stand apart in the source and are kept apart here.

Key:
[1] = molecular target: T1, human D4 dopamine receptor (Homo sapiens, UniProt P21917, DEL271-302/N396T/P18R)
T1 sequence (P21917 with tags, fused parts or gaps P18R/DEL271-302/N396T): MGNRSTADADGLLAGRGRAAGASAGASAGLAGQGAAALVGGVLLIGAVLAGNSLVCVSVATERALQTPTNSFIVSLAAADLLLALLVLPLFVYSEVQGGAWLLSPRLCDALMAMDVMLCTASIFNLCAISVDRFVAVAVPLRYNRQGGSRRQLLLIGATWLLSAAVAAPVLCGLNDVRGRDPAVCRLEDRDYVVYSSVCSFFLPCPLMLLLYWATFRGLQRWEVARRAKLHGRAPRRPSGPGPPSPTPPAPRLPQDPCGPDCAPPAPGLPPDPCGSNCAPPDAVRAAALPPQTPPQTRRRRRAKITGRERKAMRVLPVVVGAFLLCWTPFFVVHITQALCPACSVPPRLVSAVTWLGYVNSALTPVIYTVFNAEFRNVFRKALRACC

[2] = molecular target: D2 in pig anterior pituitary homogenates (Sus scrofa, UniProt A0ACM8QMZ9); format: binding; details: for Ki: read-out: D2Ki
Sequence of D2 in pig anterior pituitary homogenates (A0ACM8QMZ9 1-443): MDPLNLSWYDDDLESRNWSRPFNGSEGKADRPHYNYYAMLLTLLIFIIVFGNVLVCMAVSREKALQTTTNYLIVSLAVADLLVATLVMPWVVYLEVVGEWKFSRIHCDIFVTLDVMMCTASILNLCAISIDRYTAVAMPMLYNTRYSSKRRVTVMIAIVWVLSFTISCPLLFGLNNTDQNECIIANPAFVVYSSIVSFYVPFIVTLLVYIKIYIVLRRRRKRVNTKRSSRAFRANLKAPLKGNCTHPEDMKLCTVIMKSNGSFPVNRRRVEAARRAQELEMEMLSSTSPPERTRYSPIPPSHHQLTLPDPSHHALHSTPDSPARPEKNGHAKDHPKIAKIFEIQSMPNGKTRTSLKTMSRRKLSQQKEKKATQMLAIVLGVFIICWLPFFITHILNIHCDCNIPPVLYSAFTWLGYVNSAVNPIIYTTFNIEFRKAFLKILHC

[3] = molecular target: T1, human D4 dopamine receptor; experiment: [3H]spiperone binding to membranes of COS-7 cells transfected with human D4 receptor construct
[4] = molecular target: T2, human D2 (long) (Homo sapiens, UniProt P14416); experiment: D2 dissociation constants, human D2 receptor expressed in GH(4)ZR(7) cells; format: binding
T2 construct: expressed in transfected cells; host or cells: GH(4)ZR(7)
T2 sequence (P14416 whole entry): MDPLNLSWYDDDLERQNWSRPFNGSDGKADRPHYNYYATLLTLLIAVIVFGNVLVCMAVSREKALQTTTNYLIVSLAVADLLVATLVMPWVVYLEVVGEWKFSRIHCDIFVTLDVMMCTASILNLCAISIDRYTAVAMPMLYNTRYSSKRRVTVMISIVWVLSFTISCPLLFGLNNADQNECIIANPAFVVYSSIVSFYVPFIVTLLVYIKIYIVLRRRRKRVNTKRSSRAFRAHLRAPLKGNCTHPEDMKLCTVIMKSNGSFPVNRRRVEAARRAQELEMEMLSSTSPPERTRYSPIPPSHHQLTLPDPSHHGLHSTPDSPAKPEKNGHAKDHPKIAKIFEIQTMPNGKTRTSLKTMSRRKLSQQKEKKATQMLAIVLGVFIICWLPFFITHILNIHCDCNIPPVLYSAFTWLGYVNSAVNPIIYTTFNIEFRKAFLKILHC

[5] = molecular target: T1, human D4 dopamine receptor; experiment: biochemical
[6] = T = Ki in pig anterior pituitary homogenates, no unit in table

NC1CCc2cc(O)c(O)cc2C1 (racemic) [ADTN-(±)]
Ki [1]: 33.7 nM
Ki [2, 6]: 1.7 nM

NC[C@H](O)c1ccc(O)c(O)c1 [(−) Noradrenaline]
Ki [2]: ~6000 nM

CC(C)C[C@H]1C(=O)N2CCC[C@H]2[C@]2(O)O[C@](NC(=O)[C@@H]3C=C4c5cccc6[nH]c(Br)c(c56)C[C@H]4N(C)C3)(C(C)C)C(=O)N12 [Bromocriptine]
Ki [3]: 128 nM
Ki [4]: 14 nM

CC(C)C[C@H]1C(=O)N2CCC[C@H]2[C@]2(O)O[C@](NC(=O)[C@@H]3C=C4c5cccc6[nH]cc(c56)C[C@H]4N(C)C3)(C(C)C)C(=O)N12 [Ergocriptine-S]
Ki ([3]; read-out: D4Ki): 55 nM
Ki [2, 6]: 0.4 nM

CCc1cc(Cl)c(OC)c(C(=O)NC[C@@H]2CCCN2CC)c1O [Eticlopnde]
Ki [3]: 0.52 nM
[formula] (ratio D2Ki to D4Ki) [2]: 0.17

OCCN1CCN(CCCN2c3ccccc3Sc3ccc(C(F)(F)F)cc32)CC1 [Fluphenazine]
Ki [5]: 42 nM

O=C(c1ccc(F)cc1)C1CCN(CCn2c(=O)[nH]c3ccccc3c2=O)CC1 [Ketanserin]
Ki [5]: 147 nM

CCCN(CCc1cccs1)[C@H]1CCc2c(O)cccc2C1 [N-0437]
Ki [1]: 93 nM
Ki [2, 6]: 0.7 nM

CCCN1CCc2cccc3c2[C@H]1Cc1ccc(O)c(O)c1-3 [NPA]
Ki [1]: 5.5 nM
Ki [2, 6]: 0.4 nM

CN1CCN(C2Cc3ccccc3Sc3ccc(Cl)cc32)CC1 (centres unmarked) [Octoclothepin-R]
Ki [2]: 13.5 nM

CCCN1CCO[C@@H]2c3cc(O)ccc3CC[C@H]21 [PHNO-(+)]
Ki [1]: 42 nM
Ki [2, 6]: 1.2 nM

O=c1[nH]c2ccccc2n1C1CCN(CCCC(c2ccc(F)cc2)c2ccc(F)cc2)CC1 [Pimozide]
Ki [3]: 25 nM

CCCN1CCC[C@@H]2Cc3n[nH]cc3C[C@H]21 [Quinpirole(−)]
Ki [2, 6]: 4.8 nM

CCN1CCC[C@H]1CNC(=O)c1c(O)c(Cl)cc(Cl)c1OC [Raclopride]
Ki [5]: 253 nM

CN1CCc2cc(Cl)c(O)cc2[C@@H](c2ccccc2)C1 [SCH23390]
Ki [5]: 1960 nM

Oc1cc2c(cc1O)C(c1ccccc1)CNCC2 (centres unmarked) [SKF-38393]
Ki [3]: 1600 nM

NCCc1c[nH]c2ccc(O)cc12 [Serotonin]
Ki [5]: ~8000 nM

CN1CCN(CCCN2c3ccccc3Sc3ccc(S(=O)(=O)N(C)C)cc32)CC1 [Thioproperazine]
Ki [5]: 53 nM

CSc1ccc2c(c1)N(CCC1CCCCN1C)c1ccccc1S2 (centres unmarked) [Thioridazine]
Ki [5]: 12 nM

CNc1cc(OC)c(C(=O)NC2CCN(Cc3ccccc3)C2C)cc1Cl (centres unmarked) [YM-09151-2]
Ki [2, 6]: 0.06 nM

Fencidopam
Ki [1]: 420 nM
Ki [2, 6]: 2.8 nM
